Assay: Human HepG2 cell viability assay in 384 well format
Type: toxicity, cell-based
Parameters: dose 125 nL, time 70.5 hour; cytotoxicity at 70.5 h: concentration not given beside the values
Settings: HepG2 cells, read-out: Inhibition

CC(=O)c1c(F)cccc1NC1CCN(C(=O)CC(C)C)CC1
cytotoxicity at 70.5 h: 12.4%

O=C(C1CCCC1)N1CCC2(CC1)COCCN2CC1CC1
cytotoxicity at 70.5 h: -12.4%

CCOCCCC(=O)Nc1c(-c2ccc(F)cc2)ncn1C
cytotoxicity at 70.5 h: 0.124%

Cc1nn(C)cc1-c1ccnc(N(C)Cc2noc(C(C)C)n2)n1
cytotoxicity at 70.5 h: -2.05%

N#Cc1ccc(CNc2cnn(CCN3CCOCC3)c2)cc1
cytotoxicity at 70.5 h: 42.1%

CC(O)CNC(=O)NCCCN1CCN(c2ncccn2)CC1 (stereo unspecified)
cytotoxicity at 70.5 h: -6.22%

COCC(C)NC(=O)CCSc1ccc(F)cc1 (stereo unspecified)
cytotoxicity at 70.5 h: 13.7%

CCc1cnc(CNC(=O)NC2CC(C)(C)OC2(C)C)s1 (stereo unspecified)
cytotoxicity at 70.5 h: 12.1%

COc1ccc(CN2CCc3nc4ccsc4c(=O)n3CC2)c(C)c1C
cytotoxicity at 70.5 h: 39.8%

Cc1cc(N(C)C)nc(C2(C)CCCN2C(=O)c2ccn(C)n2)n1 (stereo unspecified)
cytotoxicity at 70.5 h: -9.18%

Cc1nc(C)n(CC2CCCN2Cc2nc(-c3ccsc3)no2)n1 (stereo unspecified)
cytotoxicity at 70.5 h: 12.8%

Cc1cccc2c(=O)c(C(=O)N3CCCC4(CN(C)C(=O)O4)C3)c[nH]c12 (stereo unspecified)
cytotoxicity at 70.5 h: -3.6%

COc1cccc2ccc(CN3CCN(c4cccnc4)CC3)nc12
cytotoxicity at 70.5 h: 7.51%

CC(=O)NC1CCCN(C(=O)NCCOc2ccc3c(c2)OCO3)C1 (stereo unspecified)
cytotoxicity at 70.5 h: -10.3%

O=C(C1CCCO1)N1CCCn2c(nnc2Cn2cccn2)C1 (stereo unspecified)
cytotoxicity at 70.5 h: -10.9%

c1cncc(COCC2CC[C@H]3[C@H]2OCCN3Cc2ccoc2)c1 (stereo partly specified)
cytotoxicity at 70.5 h: 11.3%

COCCN1CCC(CNC(=O)CCc2cc(F)ccc2F)C1 (stereo unspecified)
cytotoxicity at 70.5 h: -4.52%

COc1ccccc1CCNC(=O)CNCC1CN(C)CCO1 (stereo unspecified)
cytotoxicity at 70.5 h: -3.47%

COc1ccc(-c2nnc([C@H]3CCN(CC4CC4)C3)o2)cc1
cytotoxicity at 70.5 h: 2.78%

O=C(NCCNc1ncccn1)C1CC(=O)N(Cc2ccccn2)C1 (stereo unspecified)
cytotoxicity at 70.5 h: 17.5%

CC(C)c1cc(C(=O)N2CCN(Cc3ccsc3)CC2)n[nH]1
cytotoxicity at 70.5 h: -9.01%

CCn1ncc2c1CCCC2NCc1cc(OC)cc(OC)c1 (stereo unspecified)
cytotoxicity at 70.5 h: -9.39%

CC(C)Cc1ccc(S(=O)(=O)NCCCN2CCNC(=O)C2)cc1
cytotoxicity at 70.5 h: -3.66%

COc1ccc(CNc2c(C)cnc3c2c(=O)n(C)c(=O)n3C)cc1
cytotoxicity at 70.5 h: 7.6%

Cc1nc(O)cc(C2CCN(C(=O)C(C)Cn3nc(C)nc3C)CC2)n1 (stereo unspecified)
cytotoxicity at 70.5 h: -4.5%

O=C(C1CCC1)N1C[C@@H]2CN(Cc3ccncc3)C(=O)[C@@H]2C1
cytotoxicity at 70.5 h: -12.5%

COc1cc(C)c(C(C)NC(=O)NCCCn2cncn2)cc1OC (stereo unspecified)
cytotoxicity at 70.5 h: -5.14%

Cc1cccc(C(=O)N(C)C2CCN(c3ccccn3)CC2)c1C
cytotoxicity at 70.5 h: 2.5%

Cc1cnn(CC(=O)Nc2cc(-n3nnnc3C3CC3)ccc2F)c1
cytotoxicity at 70.5 h: -7.79%

CCc1c(C)nn(CCNC(=O)c2cnn[nH]2)c1C
cytotoxicity at 70.5 h: -5.63%

CCc1cc(=O)[nH]c(-n2nc(C3CC3)cc2NC(=O)C2CC2)n1
cytotoxicity at 70.5 h: 42.7%

Cc1ccc(N2CCC(N3C[C@@H](CN(C)C)[C@@H](CO)C3)CC2)cc1
cytotoxicity at 70.5 h: -6.07%

O=C(c1cccnc1O)N1CCC(COc2ccccc2)CC1
cytotoxicity at 70.5 h: -14.5%

O=C(NCC(Cc1cccc(F)c1)n1cccc1)C1CC1 (stereo unspecified)
cytotoxicity at 70.5 h: -16.2%

COc1c(CNCCC(=O)NC2CCCCC2)c(C(C)C)nn1C
cytotoxicity at 70.5 h: -0.685%

CCOc1ccc(Oc2cc(CN)ccn2)cc1
cytotoxicity at 70.5 h: -27.6%

Cn1cc(C(=O)NC2CCN(Cc3ccn(C)c(=O)c3)CC2)cn1
cytotoxicity at 70.5 h: -14%

Cc1csc2c(N3CCC(NCCCc4cnn(C)c4)CC3)ncnc12
cytotoxicity at 70.5 h: 2.87%

c1ccc(CCCN2CCCC(Nc3cnc4ccccc4n3)C2)cc1 (stereo unspecified)
cytotoxicity at 70.5 h: -2.78%

CCOc1ccccc1C(=O)NCc1nncn1C1CC1
cytotoxicity at 70.5 h: 3.5%

Cn1cc(NS(=O)(=O)CCOc2ccc(F)cc2)cn1
cytotoxicity at 70.5 h: -4.23%

NC(=O)COc1ccc(CNCc2cc(F)cc(F)c2)cc1
cytotoxicity at 70.5 h: -8.73%

Cc1nc(C2CCN(C(=O)c3cc(C4CC4)[nH]n3)CC2)no1
cytotoxicity at 70.5 h: -0.899%

O=C([C@H]1COC[C@H]2CN(C3CCCC3)C[C@H]21)N1CCCCO1
cytotoxicity at 70.5 h: -12.7%

COc1cc2c(nn1)CCN(CC(O)COc1ccc(C#N)cc1)C2 (stereo unspecified)
cytotoxicity at 70.5 h: 17.8%

Cc1ccc(-c2csc(-c3cccc(C(=O)O)c3)n2)cc1
cytotoxicity at 70.5 h: 19.5%

CC(=O)N1CCC(c2cc(C(F)(F)F)nc3nccn23)CC1
cytotoxicity at 70.5 h: -8.29%

O=C(O)c1ccc(OC2CCOCC2)cc1
cytotoxicity at 70.5 h: -3.72%

Cc1[nH]ccc1C(=O)N1C[C@H]2CC[C@@H]1CN(S(=O)(=O)N(C)C)C2
cytotoxicity at 70.5 h: -6.98%

Cc1cc(C)n(CC2CCCN2CCS(C)(=O)=O)n1 (stereo unspecified)
cytotoxicity at 70.5 h: -9.56%

O=C(c1cccc(F)c1)N1CCC2(CC1)CN(c1ccccn1)CCO2
cytotoxicity at 70.5 h: -8.22%

NC(=O)CN1CCOCC(Cc2ccccc2)C1 (stereo unspecified)
cytotoxicity at 70.5 h: -11.7%

CC(C(=O)N1CCOCC1)n1nc(-c2cccs2)cc(N)c1=O (stereo unspecified)
cytotoxicity at 70.5 h: 2.02%

Cc1ccc(C(CCNCCCN(C)C)C2CCOC(C)(C)C2)cc1 (stereo unspecified)
cytotoxicity at 70.5 h: 30.6%

O=C(c1cccnc1)N1CCC(c2nc(O)cc(-c3ccncc3)n2)C1 (stereo unspecified)
cytotoxicity at 70.5 h: -10.5%

Cc1cnn(CC2CCCN2C(=O)CCc2c(C)noc2C)c1 (stereo unspecified)
cytotoxicity at 70.5 h: 12.1%
